Values of other authors as cited in patent US20160361293A1, “NANOSTRUCTURED COMPOSITION COMPRISING INDOMETHACINE, ITS PHARMACEUTICALLY ACCEPTABLE SALTS AND CO-CRYSTALS AND PROCESS FOR THE PREPARATION THEREOF” (DARHOLDING KFT., priority 2014, published 2016).
In brackets after ≈: the same amount, converted by molar mass.

Tests used:
[1] = not given; remark: listed apart in the source
[2] = in vivo

stability in neutral or slightly acidic media (neutral or slightly acidic media): stable
stability in strong alkali (strong alkali): decomposes
solubility in alcohol ([1]; alcohol, in words): sparingly soluble
water solubility ([1]; water): 50 µg/mL (≈ 140 µM)
solubility in water ([1]; water, in words): practically insoluble
mean half-life [2]: about 4.5 hours
Compound: COc1ccc2c(c1)c(CC(=O)O)c(C)n2C(=O)c1ccc(Cl)cc1 [Indomethacin, 1-(4-chlorobenzoyl)-5-methoxy-2-methyl-1H-indole-3-acetic acid]
